Measured values reported in patent US10577378B2, “EIF4A-inhibiting compounds and methods related thereto” (eFFECTOR Therapeutics, Inc., priority 2015, dated 2020).

Test system: MDA-MB-231 human breast cancer cells
Assay: Cell proliferation assay (CellTiter-Glo, 72 hours treatment)
Format: cell-based
Details: Homo sapiens; MDA-MB-231 cells, 72 hours at 37° C., CellTiter-Glo; read-out: MDA-MB-231 cell proliferation assay (IC50)
Method in brief: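 IC50 categories: under 100 nM +++, 100–1000 nM ++, above 1000 nM +, derived by sigmoidal curve fitting of CellTiter-Glo luminescence. Cells plated at 2,500 per well, dosed the following day and exposed 72 h at 37 °C versus DMSO control.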

`CS(=O)(=O)[C@H]1[C@@H](O)[C@@]2(O)c3ncc(C#N)cc3O[C@@]2(c2ccc(C#N)cc2)[C@@H]1c1ccccc1` [86F, (5aR,6S,7R,8S,8aS)-5a-(4-cyanophenyl)-8,8a-dihydroxy-7-(methylsulfonyl)-6-phenyl-5a,7,8,8a-tetrahydro-6H-cyclopenta[4,5]furo[3,2-b]pyridine-3-carbonitrile] and `CNS(=O)(=O)[C@H]1[C@@H](O)[C@@]2(O)c3ncc(Cl)cc3O[C@@]2(c2ccc(C#N)cc2)[C@@H]1c1ccccc1` (racemic) [125F, rac-(5aR,6S,7R,8S,8aS)-3-chloro-5a-(4-cyanophenyl)-8,8a-dihydroxy-N-methyl-6-phenyl-5a,7,8,8a-tetrahydro-6H-cyclopenta[4,5]furo[3,2-b]pyridine-7-sulfonamide] cannot be ordered by IC50: > 1 µM for the first, > 1 µM for the second.

`COc1cncc2c1C1(O)[C@H](O)[C@H](CNCc3cccnc3)[C@@H](c3ccccc3)[C@]1(c1ccc(C#N)cc1)O2` (mixture of isomers) [78F, Rac-4-((5R,6S,7S,7aR)-4b,5-dihydroxy-4-methoxy-7-phenyl-6-(((pyridin-3-ylmethyl)amino)methyl)-4b,5,6,7-tetrahydro-7aH-cyclopenta[4,5]furo[2,3-c]pyridin-7a-yl)benzonitrile] and `COc1cncc2c1[C@]1(O)[C@H](O)[C@H](CNCc3ccnn3C)[C@@H](c3ccccc3)[C@]1(c1ccc(C#N)cc1)O2` (racemic) [242F, Rac-4-((4bS,5R,6S,7S,7aR)-4b,5-dihydroxy-4-methoxy-6-((((1-methyl-1H-pyrazol-5-yl)methyl)amino)methyl)-7-phenyl-4b,5,6,7-tetrahydro-7aH-cyclopenta[4,5]furo[2,3-c]pyridin-7a-yl)benzonitrile] fall in the same range of IC50: 0.1 to 1 µM for the first, 0.1 to 1 µM for the second.

Compared with `CNC[C@H]1[C@@H](O)[C@@]2(O)c3c(OC)cncc3O[C@@]2(c2ccc(C#N)cc2)[C@@H]1c1ccccc1` (racemic) [69F, Rac-4-((4bS,5R,6S,7S,7aR)-4b,5-dihydroxy-4-methoxy-6-((methylamino)methyl)-7-phenyl-4b,5,6,7-tetrahydro-7aH-cyclopenta[4,5]furo[2,3-c]pyridin-7a-yl)benzonitrile], `COc1cncc2c1[C@]1(O)[C@H](O)[C@H](CNCC(C)(C)O)[C@@H](c3ccccc3)[C@]1(c1ccc(C#N)cc1)O2` (single isomer, unassigned) [254F] is lower in IC50: 0.1 to 1 µM for the first, < 0.1 µM for the second.

`CN(C)C(=O)[C@H]1[C@@H](O)[C@@]2(O)c3ncc(Cl)cc3O[C@@]2(c2ccc(C(F)F)cc2)[C@@H]1c1ccccc1` (single isomer, unassigned) [16F] and `Cc1ccc([C@@]23Oc4cc(Cl)cnc4[C@]2(O)[C@H](O)[C@H](C(=O)N(C)C)[C@H]3c2ccccc2)cc1` (single isomer, unassigned) [7F] fall in the same range of IC50: 0.1 to 1 µM for the first, 0.1 to 1 µM for the second.

Compared with `COC(=O)[C@H]1[C@@H](O)[C@@]2(F)c3ncc(Cl)cc3O[C@@]2(c2ccc(Br)cc2)[C@@H]1c1ccccc1` (racemic) [43F, Rac-methyl (5aR,6S,7R,8R,8aS)-5a-(4-bromophenyl)-3-chloro-8a-fluoro-8-hydroxy-6-phenyl-5a,7,8,8a-tetrahydro-6H-cyclopenta[4,5]furo[3,2-b]pyridine-7-carboxylate], `N#C[C@H]1[C@@H](O)[C@@]2(O)c3ncc(Cl)cc3O[C@@]2(c2ccc(Br)cc2)[C@@H]1c1ccccc1` (racemic) [27F, rac-(5aR,6S,7S,8R,8aS)-5a-(4-bromophenyl)-3-chloro-8,8a-dihydroxy-6-phenyl-5a,7,8,8a-tetrahydro-6H-cyclopenta[4,5]furo[3,2-b]pyridine-7-carbonitrile] is lower in IC50: > 1 µM for the first, 0.1 to 1 µM for the second. The second is the more potent here.

First: CN(C)C[C@H]1[C@@H](C#N)[C@@]2(O)c3ncc(Cl)cc3O[C@@]2(c2ccc(Br)cc2)[C@@H]1c1ccccc1 (racemic) [227F, Rac-(5aR,6S,7R,8S,8aR)-5a-(4-bromophenyl)-3-chloro-7-((dimethylamino)methyl)-8a-hydroxy-6-phenyl-5a,7,8,8a-tetrahydro-6H-cyclopenta[4,5]furo[3,2-b]pyridine-8-carbonitrile]
Second: CNS(=O)(=O)[C@H]1[C@@H](O)[C@@]2(O)c3ncc(Cl)cc3O[C@@]2(c2ccc(Br)cc2)[C@@H]1c1ccccc1 (racemic) [124F, Rac-(5aR,6S,7R,8S,8aS)-5a-(4-bromophenyl)-3-chloro-8,8a-dihydroxy-N-methyl-6-phenyl-5a,7,8,8a-tetrahydro-6H-cyclopenta[4,5]furo[3,2-b]pyridine-7-sulfonamide]
The IC50 of the first is higher: > 1 µM for the first, 0.1 to 1 µM for the second.

Compared with `COc1cncc2c1[C@]1(O)[C@H](O)[C@H](S(=O)(=O)CC(F)(F)F)[C@@H](c3ccccc3)[C@]1(c1ccc(Br)cc1)O2` (racemic) [117F, Rac-(4bS,5S,6R,7S,7aR)-7a-(4-bromophenyl)-4-methoxy-7-phenyl-6-((2,2,2-trifluoroethyl)sulfonyl)-5,6,7,7a-tetrahydro-4bH-cyclopenta[4,5]furo[2,3-c]pyridine-4b,5-diol], `COc1cncc2c1[C@]1(O)[C@H](O)[C@H](C(=O)NCC(F)(F)F)[C@@H](c3ccccc3)[C@]1(c1ccc(Br)cc1)O2` (racemic) [90F, Rac-(4bS,5R,6R,7S,7aR)-7a-(4-bromophenyl)-4b,5-dihydroxy-4-methoxy-7-phenyl-N-(2,2,2-trifluoroethyl)-4b,6,7,7a-tetrahydro-5H-cyclopenta[4,5]furo[2,3-c]pyridine-6-carboxamide] is lower in IC50: > 1 µM for the first, < 0.1 µM for the second. The second is the more potent here.

First: N#Cc1ccc([C@@]23Oc4cc(Cl)cnc4[C@]2(O)[C@H](O)[C@H](CN2CCCC2)[C@H]3c2ccccc2)cc1 (racemic) [41Fb, rac-4-((5aR,6S,7S,8R,8aS)-3-chloro-8,8a-dihydroxy-6-phenyl-7-(pyrrolidin-1-ylmethyl)-6,7,8,8a-tetrahydro-5aH-cyclopenta[4,5]furo[3,2-b]pyridin-5a-yl)benzonitrile]
Second: COC(=O)[C@@]12C[C@@H]1[C@@]1(O)c3ncc(Cl)cc3O[C@@]1(c1ccc(C#N)cc1)[C@@H]2c1ccccc1 (racemic) [25F, Rac-methyl (5aR,6R,6aS,7aS,7bR)-3-chloro-5a-(4-cyanophenyl)-7b-hydroxy-6-phenyl-5a,7,7a,7b-tetrahydrocyclopropa[4′,5′]cyclopenta[1′,2′:4,5]furo[3,2-b]pyridine-6a(6H)-carboxylate]
The IC50 of the first is lower: 0.1 to 1 µM for the first, > 1 µM for the second.

First: O[C@H]1[C@H](Sc2ccccn2)[C@@H](c2ccccc2)[C@]2(c3ccc(Br)cc3)Oc3cc(Cl)cnc3[C@]12O (racemic) [160Fb, Rac-(5aR,6S,7R,8R,8aS)-5a-(4-bromophenyl)-3-chloro-6-phenyl-7-(pyridin-2-ylthio)-5a,6,7,8-tetrahydro-8aH-cyclopenta[4,5]furo[3,2-b]pyridine-8,8a-diol]
Second: O=S(=O)(c1ccccn1)[C@H]1[C@@H](O)[C@@]2(O)c3ncc(Cl)cc3O[C@@]2(c2ccc(Br)cc2)[C@@H]1c1ccccc1 (racemic) [163F, rac-(5aR,6S,7R,8S,8aS)-5a-(4-bromophenyl)-3-chloro-6-phenyl-7-(pyridin-2-ylsulfonyl)-5a,6,7,8-tetrahydro-8aH-cyclopenta[4,5]furo[3,2-b]pyridine-8,8a-diol]
The IC50 of the first is higher: > 1 µM for the first, 0.1 to 1 µM for the second. The second is the more potent here.

Compared with `COc1cncc2c1[C@]1(O)[C@H](O)[C@H](CNCC(F)F)[C@@H](c3ccccc3)[C@]1(c1ccc(C(F)(F)F)cc1)O2` (single isomer, unassigned) [286F], `COc1cncc2c1[C@]1(O)[C@H](O)[C@H](C(=O)N3CCCCC3)[C@@H](c3ccccc3)[C@]1(c1ccc(Br)cc1)O2` (racemic) [257F, Rac-((4bS,5R,6R,7S,7aR)-7a-(4-bromophenyl)-4b,5-dihydroxy-4-methoxy-7-phenyl-4b,6,7,7a-tetrahydro-5H-cyclopenta[4,5]furo[2,3-c]pyridin-6-yl)(piperidin-1-yl)methanone] is lower in IC50: 0.1 to 1 µM for the first, < 0.1 µM for the second.

`CN(C)C(=O)[C@H]1[C@@H](O)[C@@]2(O)c3c(Cl)cncc3O[C@@]2(c2ccc(C#N)cc2)[C@@H]1c1ccccc1` (single isomer, unassigned) [98F] and `COc1nccc2c1[C@]1(O)[C@H](O)[C@H](C(=O)N(C)C)[C@@H](c3ccccc3)[C@]1(c1ccc(C#N)cc1)O2` (racemic) [19F, rac-(5aR,6S,7R,8R,8aS)-5a-(4-cyanophenyl)-8,8a-dihydroxy-1-methoxy-N,N-dimethyl-6-phenyl-5a,7,8,8a-tetrahydro-6H-cyclopenta[4,5]furo[3,2-c]pyridine-7-carboxamide] fall in the same range of IC50: 0.1 to 1 µM for the first, 0.1 to 1 µM for the second.

First: O[C@@H]1C[C@@H](c2ccccc2)[C@]2(c3ccc(Br)cc3)Oc3cc(Cl)cnc3[C@]12O (racemic) [127F, Rac-(5aR,6S,8R,8aS)-5a-(4-bromophenyl)-3-chloro-6-phenyl-5a,6,7,8-tetrahydro-8aH-cyclopenta[4,5]furo[3,2-b]pyridine-8,8a-diol]
Second: COc1nc(Cl)cc2c1[C@]1(O)[C@H](O)[C@H](C(=O)N3CC(C(F)F)C3)[C@@H](c3ccccc3)[C@]1(c1ccc(Br)cc1)O2 (racemic) [215F, Rac-((5aR,6S,7R,8R,8aS)-5a-(4-bromophenyl)-3-chloro-8,8a-dihydroxy-1-methoxy-6-phenyl-5a,7,8,8a-tetrahydro-6H-cyclopenta[4,5]furo[3,2-c]pyridin-7-yl)(3-(difluoromethyl)azetidin-1-yl)methanone]
The IC50 of the first is higher: 0.1 to 1 µM for the first, < 0.1 µM for the second.

`COc1cncc2c1[C@]1(O)[C@H](O)[C@H](C(=O)NCc3ccnn3C)[C@@H](c3ccccc3)[C@]1(c1ccc(Br)cc1)O2` (racemic) [241F, rac-(4bS,5R,6R,7S,7aR)-7a-(4-bromophenyl)-4b,5-dihydroxy-4-methoxy-N-((1-methyl-1H-pyrazol-5-yl)methyl)-7-phenyl-4b,6,7,7a-tetrahydro-5H-cyclopenta[4,5]furo[2,3-c]pyridine-6-carboxamide] and `COc1nc(C#N)cc2c1[C@]1(O)[C@H](O)[C@H](CN(C)C)[C@@H](c3ccccc3)[C@]1(c1ccc(C#N)cc1)O2` (single isomer, unassigned) [139F] cannot be ordered by IC50: < 0.1 µM for the first, < 0.1 µM for the second.
